This is an account of results in ChEMBL document CHEMBL4270525, “SAR studies on truxillic acid mono esters as a new class of antinociceptive agents targeting fatty acid binding proteins” (Eur J Med Chem, 2018).

Molecules are shown by their SMILES. A value given as a limit tells only on which side of the number the result lay.

By Ki is commonly meant a dissociation constant, usually derived from enzyme kinetics or from competition with a known ligand. The half-life is the time needed for the level to fall by half in the phase considered. A higher half-life goes with slow decline.

Sequence of Fatty acid-binding protein 5 (Q01469 whole entry): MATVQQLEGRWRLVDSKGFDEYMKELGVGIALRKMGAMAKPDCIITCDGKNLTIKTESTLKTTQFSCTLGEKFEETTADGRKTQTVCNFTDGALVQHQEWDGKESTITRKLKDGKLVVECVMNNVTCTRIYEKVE

Tested on in one data set: not listed separately
In words: Colloidal aggregation of the compound at 20 uM by dynamic light scattering method. The class given is physicochemical.
Settings: not given
As to `O=C(O)[C@H]1[C@H](c2ccccc2)[C@H](C(=O)O[C@@H]2CCCC[C@H]2c2ccccc2)[C@H]1c1ccccc1`, the Activity entry is “Not Active”.

`O=C(O)C1C(c2ccccc2)C(C(=O)Oc2cccc3ccccc23)C1c1ccccc1` (racemic): the Activity result is reported as “Not Active”.

The next data set has as its target Fatty acid-binding protein 5 (Homo sapiens, UniProt Q01469). In words: Displacement of DAUDA from recombinant human N-terminal His-tagged FABP5 expressed in Escherichia coli BL21(DE3) after 20 mins by fluorescence assay.
Settings: not given
In the case of `O=C(Oc1cccc(-c2ccccc2)c1)[C@H]1[C@H](c2ccccc2)[C@H](C(=O)Oc2cccc(-c3ccccc3)c2)[C@H]1c1ccccc1`, the inhibition constant (Ki) entry was “Nd(Insoluble)”.

The same data set, now with this note: read-out: Ki.
As to `COc1cc([C@H]2[C@H](C(=O)O)[C@H](c3ccc(O)c(OC)c3)[C@H]2C(=O)O)ccc1O`, the inhibition constant (Ki) was > 10 µM.

Turning to `O=C(OCC1CCOCC1)[C@H]1[C@H](c2ccccc2)[C@H](C(=O)OCC2CCOCC2)[C@H]1c1ccccc1`, the Ki is > 10 µM.

With `COc1ccc(COC(=O)[C@H]2[C@H](c3ccccc3)[C@H](C(=O)OCc3ccc(OC)cc3)[C@H]2c2ccccc2)cc1`, the Ki was > 10 µM.

For the compound `O=C(O)[C@H]1[C@H](c2ccccc2[N+](=O)[O-])[C@H](C(=O)O[C@@H]2CCCC[C@H]2c2ccccc2)[C@H]1c1ccccc1[N+](=O)[O-]`, the Ki was > 10 µM.

As for `O=C(O)[C@H]1[C@H](c2ccccc2)[C@H](C(=O)OCC(F)(F)F)[C@H]1c1ccccc1`, the Ki is > 10 µM.

Consider `O=C(O)[C@H]1[C@H](c2ccccc2)[C@@H](C(=O)Nc2nc(-c3ccc4c(c3)CCCC4)cs2)[C@H]1c1ccccc1`, for which the Ki is > 10 µM.

As for `O=C(O)[C@H]1[C@H](c2ccccc2Cl)[C@H](C(=O)O[C@@H]2CCCC[C@H]2c2ccccc2)[C@H]1c1ccccc1Cl` (racemic), the Ki turned out to be 1.7 µM.

With `O=C(OCc1ccc(F)cc1)[C@H]1[C@H](c2ccccc2)[C@H](C(=O)OCc2ccc(F)cc2)[C@H]1c1ccccc1`, the Ki is > 10 µM.

For `O=C(O)[C@H]1[C@H](c2c(Cl)cccc2Cl)[C@H](C(=O)O[C@@H]2CCCC[C@H]2c2ccccc2)[C@H]1c1c(Cl)cccc1Cl`, the Ki worked out at 1.23 µM.

As to `COc1ccccc1[C@H]1[C@H](C(=O)O)[C@H](c2ccccc2OC)[C@H]1C(=O)Oc1cccc2ncccc12`, the Ki turned out to be 3.93 µM.

`O=C(O)[C@H]1[C@H](c2ccccc2)[C@H](C(=O)O)[C@H]1c1ccccc1`: the Ki is > 10 µM.

Turning to `O=C(OCc1ccccc1)[C@H]1[C@H](c2ccccc2)[C@H](C(=O)OCc2ccccc2)[C@H]1c1ccccc1`, the Ki is > 10 µM.

For `O=C(O)[C@H]1[C@H](c2ccccc2)[C@H](C(=O)OCc2ccccc2)[C@H]1c1ccccc1`, the Ki was 3.81 µM.

For the compound `O=C(O)[C@H]1[C@H](c2ccccc2[N+](=O)[O-])[C@H](C(=O)Oc2cccc3ccccc23)[C@H]1c1ccccc1[N+](=O)[O-]`, the inhibitory constant (Ki) was > 10 µM.

For `O=C(O)[C@H]1[C@H](c2ccc(O)cc2)[C@H](C(=O)Oc2cccc3ccccc23)[C@H]1c1ccc(O)cc1` (racemic), the Ki is > 10 µM.

In the case of `O=C(O)[C@H]1[C@H](c2ccccc2)[C@H](C(=O)Nc2nc(-c3ccc4c(c3)CCCC4)cs2)[C@H]1c1ccccc1`, the Ki was > 10 µM.

For `C#Cc1cccc(OC(=O)[C@H]2[C@@H](c3ccccc3)[C@H](C(=O)O)[C@@H]2c2ccccc2)c1` (racemic), the Ki was 0.89 µM.

Regarding `COc1ccc([C@H]2[C@H](C(=O)O)[C@H](c3ccc(OC)c(OC)c3)[C@H]2C(=O)O)cc1OC`, the Ki was > 10 µM.

Tested on in the next data set: not listed separately
Put plainly: Half life in C57BL/6 mouse at 20 mg/kg, ip by LC-MS analysis. In kind it is ADME, organism-based. Conditions: in vivo.
As to `O=C(O)C1C(c2ccccc2)C(C(=O)Oc2cccc3ccccc23)C1c1ccccc1` (racemic), the half-life was 3 h.

The target in the next data set is Fatty acid-binding protein, brain (Homo sapiens, UniProt O15540). In words: Displacement of ANS from recombinant human N-terminal His-tagged FABP7 expressed in Escherichia coli BL21(DE3) after 20 mins by fluorescence assay.
Sequence of Fatty acid-binding protein, brain (O15540 whole entry): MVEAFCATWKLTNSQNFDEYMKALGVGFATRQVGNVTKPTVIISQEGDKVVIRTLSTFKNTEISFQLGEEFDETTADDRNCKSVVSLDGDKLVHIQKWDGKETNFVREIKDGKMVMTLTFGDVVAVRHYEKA
Settings: not given
For the compound `O=C(Oc1cccc(-c2ccccc2)c1)[C@H]1[C@H](c2ccccc2)[C@H](C(=O)Oc2cccc(-c3ccccc3)c2)[C@H]1c1ccccc1`, the Ki result is on record as “Nd(Insoluble)”.

The same data set, now with this note: read-out: Ki.
For `COc1cc([C@H]2[C@H](C(=O)O)[C@H](c3ccc(O)c(OC)c3)[C@H]2C(=O)O)ccc1O`, the Ki is > 10 µM.

Take `O=C(OCC1CCOCC1)[C@H]1[C@H](c2ccccc2)[C@H](C(=O)OCC2CCOCC2)[C@H]1c1ccccc1`: the Ki is > 10 µM.

Regarding `COc1ccc(COC(=O)[C@H]2[C@H](c3ccccc3)[C@H](C(=O)OCc3ccc(OC)cc3)[C@H]2c2ccccc2)cc1`, the Ki was > 10 µM.

Regarding `O=C(O)[C@H]1[C@H](c2ccccc2[N+](=O)[O-])[C@H](C(=O)O[C@@H]2CCCC[C@H]2c2ccccc2)[C@H]1c1ccccc1[N+](=O)[O-]`, the Ki was > 10 µM.

As for `O=C(O)[C@H]1[C@H](c2ccccc2)[C@H](C(=O)Oc2ccccc2-c2ccccc2)[C@H]1c1ccccc1`, the Ki was 0.35 µM.

With `O=C(O)[C@H]1[C@H](c2ccccc2)[C@@H](C(=O)Nc2nc(-c3ccc4c(c3)CCCC4)cs2)[C@H]1c1ccccc1`, the Ki is > 10 µM.

Consider `COc1ccccc1[C@H]1[C@H](C(=O)O)[C@H](c2ccccc2OC)[C@H]1C(=O)O[C@@H]1CCCC[C@H]1c1ccccc1`, for which the inhibition constant (Ki) was 0.4 µM.

Turning to `O=C(O)[C@H]1[C@H](c2ccccc2Cl)[C@H](C(=O)O[C@@H]2CCCC[C@H]2c2ccccc2)[C@H]1c1ccccc1Cl` (racemic), the Ki is > 10 µM.

Consider `O=C(OCc1ccc(F)cc1)[C@H]1[C@H](c2ccccc2)[C@H](C(=O)OCc2ccc(F)cc2)[C@H]1c1ccccc1`, for which the Ki was > 10 µM.

For `COc1ccccc1[C@H]1[C@H](C(=O)O)[C@H](c2ccccc2OC)[C@H]1C(=O)Oc1cccc2ncccc12`, the Ki is > 10 µM.

For the compound `O=C(O)[C@H]1[C@H](c2ccccc2)[C@H](C(=O)OC2CCCCC2)[C@H]1c1ccccc1`, the Ki was found to be 0.5 µM.

As to `O=C(O)[C@H]1[C@H](c2ccccc2)[C@H](C(=O)O)[C@H]1c1ccccc1`, the Ki was > 10 µM.

As to `O=C(OCc1ccccc1)[C@H]1[C@H](c2ccccc2)[C@H](C(=O)OCc2ccccc2)[C@H]1c1ccccc1`, the Ki is > 10 µM.

For the compound `O=C(O)[C@H]1[C@H](c2ccccc2Br)[C@H](C(=O)O[C@@H]2CCCC[C@H]2c2ccccc2)[C@H]1c1ccccc1Br`, the Ki was > 10 µM.

With `O=C(O)[C@H]1[C@H](c2ccccc2[N+](=O)[O-])[C@H](C(=O)Oc2cccc3ccccc23)[C@H]1c1ccccc1[N+](=O)[O-]`, the Ki was > 10 µM.

Regarding `O=C(O)[C@H]1[C@H](c2ccccc2)[C@H](C(=O)Oc2cc(Cl)c(Cl)cc2Cl)[C@H]1c1ccccc1`, the Ki came out at 0.54 µM.

`O=C(O)[C@H]1[C@H](c2ccccc2)[C@H](C(=O)Nc2nc(-c3ccc4c(c3)CCCC4)cs2)[C@H]1c1ccccc1`: the Ki is > 10 µM.

With `O=C(O)C1C(c2ccccc2)C(C(=O)Oc2cccc3ccccc23)C1c1ccccc1` (racemic), the Ki was 0.45 µM.

As for `C#Cc1cccc(OC(=O)[C@H]2[C@@H](c3ccccc3)[C@H](C(=O)O)[C@@H]2c2ccccc2)c1` (racemic), the Ki was determined as 0.78 µM.

For the compound `COc1ccc([C@H]2[C@H](C(=O)O)[C@H](c3ccc(OC)c(OC)c3)[C@H]2C(=O)O)cc1OC`, the Ki was > 10 µM.

For the next data set, the target named is Fatty acid-binding protein, heart (Homo sapiens, UniProt P05413). Put plainly: Displacement of DAUDA from recombinant human N-terminal His-tagged FABP3 expressed in Escherichia coli BL21(DE3) after 20 mins by fluorescence assay.
Sequence of Fatty acid-binding protein, heart (P05413 whole entry): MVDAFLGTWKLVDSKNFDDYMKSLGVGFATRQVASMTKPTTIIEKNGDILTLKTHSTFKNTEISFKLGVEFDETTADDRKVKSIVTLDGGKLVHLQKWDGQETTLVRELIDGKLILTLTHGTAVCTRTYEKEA
Settings: not given
On to `O=C(Oc1cccc(-c2ccccc2)c1)[C@H]1[C@H](c2ccccc2)[C@H](C(=O)Oc2cccc(-c3ccccc3)c2)[C@H]1c1ccccc1`, for which the Ki entry is given as “Nd(Insoluble)”.

Still in this data set, the particulars now being: read-out: Ki.
For the compound `COc1cc([C@H]2[C@H](C(=O)O)[C@H](c3ccc(O)c(OC)c3)[C@H]2C(=O)O)ccc1O`, the Ki is > 10 µM.

As for `O=C(OCC1CCOCC1)[C@H]1[C@H](c2ccccc2)[C@H](C(=O)OCC2CCOCC2)[C@H]1c1ccccc1`, the Ki was > 10 µM.

Take `COc1ccc(COC(=O)[C@H]2[C@H](c3ccccc3)[C@H](C(=O)OCc3ccc(OC)cc3)[C@H]2c2ccccc2)cc1`: the Ki is > 10 µM.

Turning to `O=C(O)[C@H]1[C@H](c2ccccc2[N+](=O)[O-])[C@H](C(=O)O[C@@H]2CCCC[C@H]2c2ccccc2)[C@H]1c1ccccc1[N+](=O)[O-]`, the Ki is > 10 µM.

For the compound `O=C(O)[C@H]1[C@H](c2ccccc2)[C@H](C(=O)OCC(F)(F)F)[C@H]1c1ccccc1`, the Ki was > 10 µM.

With `O=C(O)[C@H]1[C@H](c2ccccc2)[C@@H](C(=O)Nc2nc(-c3ccc4c(c3)CCCC4)cs2)[C@H]1c1ccccc1`, the Ki was > 10 µM.

In the case of `COc1ccccc1[C@H]1[C@H](C(=O)O)[C@H](c2ccccc2OC)[C@H]1C(=O)O[C@@H]1CCCC[C@H]1c1ccccc1`, the Ki amounted to 0.4 µM.

As to `O=C(O)[C@H]1[C@H](c2ccccc2Cl)[C@H](C(=O)O[C@@H]2CCCC[C@H]2c2ccccc2)[C@H]1c1ccccc1Cl` (racemic), the Ki is > 10 µM.

As to `O=C(OCc1ccc(F)cc1)[C@H]1[C@H](c2ccccc2)[C@H](C(=O)OCc2ccc(F)cc2)[C@H]1c1ccccc1`, the Ki is > 10 µM.

In the case of `O=C(O)[C@H]1[C@H](c2c(Cl)cccc2Cl)[C@H](C(=O)O[C@@H]2CCCC[C@H]2c2ccccc2)[C@H]1c1c(Cl)cccc1Cl`, the Ki is > 10 µM.

Regarding `COc1ccccc1[C@H]1[C@H](C(=O)O)[C@H](c2ccccc2OC)[C@H]1C(=O)Oc1cccc2ncccc12`, the Ki is > 10 µM.

For `O=C(O)[C@H]1[C@H](c2ccccc2)[C@H](C(=O)Oc2cccc3ccccc23)[C@H]1c1ccccc1`, the Ki was determined as 2.82 µM.

For `O=C(O)[C@H]1[C@H](c2ccccc2)[C@H](C(=O)OC2CCCCC2)[C@H]1c1ccccc1`, the Ki is > 10 µM.

For the compound `O=C(O)[C@H]1[C@H](c2ccccc2)[C@H](C(=O)O)[C@H]1c1ccccc1`, the inhibition constant (Ki) was > 10 µM.

In the case of `O=C(OCc1ccccc1)[C@H]1[C@H](c2ccccc2)[C@H](C(=O)OCc2ccccc2)[C@H]1c1ccccc1`, the Ki was > 10 µM.

Consider `O=C(O)[C@H]1[C@H](c2ccccc2)[C@H](C(=O)OCc2ccccc2)[C@H]1c1ccccc1`, for which the Ki is > 10 µM.

Take `O=C(O)[C@H]1[C@H](c2ccccc2Br)[C@H](C(=O)O[C@@H]2CCCC[C@H]2c2ccccc2)[C@H]1c1ccccc1Br`: the Ki was > 10 µM.

On to `O=C(O)[C@H]1[C@H](c2ccccc2[N+](=O)[O-])[C@H](C(=O)Oc2cccc3ccccc23)[C@H]1c1ccccc1[N+](=O)[O-]`, for which the Ki is > 10 µM.

Regarding `O=C(O)[C@H]1[C@@H](c2ccccc2)[C@H](C(=O)Oc2cccc3ccccc23)[C@@H]1c1ccccc1`, the Ki is 3.26 µM.

With `O=C(O)[C@H]1[C@H](c2ccccc2)[C@H](C(=O)Oc2cc(Cl)c(Cl)cc2Cl)[C@H]1c1ccccc1`, the Ki came out at 2.98 µM.

For the compound `O=C(O)[C@H]1[C@H](c2ccc(O)cc2)[C@H](C(=O)Oc2cccc3ccccc23)[C@H]1c1ccc(O)cc1` (racemic), the Ki stood at 2.3 µM.

Consider `O=C(O)[C@H]1[C@H](c2ccccc2)[C@H](C(=O)Nc2nc(-c3ccc4c(c3)CCCC4)cs2)[C@H]1c1ccccc1`, for which the Ki is > 10 µM.

As to `O=C(O)C1C(c2ccccc2)C(C(=O)Oc2cccc3ccccc23)C1c1ccccc1` (racemic), the Ki stood at 2.7 µM.

Regarding `C#Cc1cccc(OC(=O)[C@H]2[C@@H](c3ccccc3)[C@H](C(=O)O)[C@@H]2c2ccccc2)c1` (racemic), the Ki is > 10 µM.

Regarding `COc1ccc([C@H]2[C@H](C(=O)O)[C@H](c3ccc(OC)c(OC)c3)[C@H]2C(=O)O)cc1OC`, the inhibitory constant (Ki) was > 10 µM.
